# Results taken from patent US7109150B2, “Trifluoromethylpyrrolecarboxamides and trifluoromethylpyrrolethioamides as fungicides” (Syngenta Crop Protection, Inc., priority 1999, dated 2006).
smiles,measurement,value
"Cn1cc(C(=O)Nc2ccccc2-c2ccc(Cl)s2)c(C(F)(F)F)c1 [Example 3, 1-Methyl-4-trifluoromethyl-1H-pyrrole-3-carboxylic acid [2′-(5′-chloro-thienyl)-2-benzamide]]",melting point,139 to 141 °C
